# In ChEMBL document CHEMBL1201862, “PubChem BioAssay data set” (2004):
#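 96-well plates; 48 h exposure; 5 concentrations. Endpoints by linear interpolation between flanking doses. Not reached: highest tested concentration assigned. At the GI50, growth is halved.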 Calls of active or inactive are those of the source. Rule as the data show it: active = GI50 up to about 1.1 µM and inactive = higher.
# Legend:
# Experiment in all cases: growth of human tumour cells (NCI), 48 h
# A498 = test system: A498
# HCT-116 = test system: HCT-116
# HCT-15 = test system: HCT-15
# HL-60 = test system: HL-60
# HT-29 = test system: HT-29
# K562 = test system: K562
# KM12 = test system: KM12
# Malme-3M = test system: Malme-3M
# NCI-H226 = test system: NCI-H226
# NCI-H460 = test system: NCI-H460
# OVCAR-4 = test system: OVCAR-4
# SF-268 = test system: SF-268
# SF-539 = test system: SF-539
# SN12C = test system: SN12C
# UO-31 = test system: UO-31
# NCI-H522 = test system: NCI-H522
# RXF 393 = test system: RXF 393
Compound,GI50 (A498),GI50 (HCT-116),GI50 (HCT-15) [µM],GI50 (HL-60),GI50 (HT-29),GI50 (K562),GI50 (KM12),GI50 (Malme-3M),GI50 (NCI-H226),GI50 (NCI-H460),GI50 (OVCAR-4),GI50 (SF-268),GI50 (SF-539),GI50 (SN12C),GI50 (UO-31),GI50 (NCI-H522),GI50 (RXF 393)
COc1ccccc1NC(=O)C1=C(C)NC(C)=C(C(=O)Nc2ccccc2OC)C1c1cccc2c1OCO2,> 100 µM (inactive),71.9 µM (inactive),> 100,41.2 µM (inactive),> 100 µM (inactive),51.1 µM (inactive),60.7 µM (inactive),> 100 µM (inactive),> 100 µM (inactive),> 100 µM (inactive),> 100 µM (inactive),> 100 µM (inactive),21.4 µM (inactive),> 100 µM (inactive),47.4 µM (inactive),,
CCC1(CN(C)C)CC/C(=C\c2ccc(OC)cc2)C1=O (centres undefined),84.1 µM (inactive),93.1 µM (inactive),23.5,,44.9 µM (inactive),40.9 µM (inactive),> 100 µM (inactive),> 100 µM (inactive),> 100 µM (inactive),> 100 µM (inactive),> 100 µM (inactive),> 100 µM (inactive),> 100 µM (inactive),> 100 µM (inactive),> 100 µM (inactive),31.5 µM (inactive),> 100 µM (inactive)
CN(C)C=C1C(Cl)=C(C=O)CC(C=O)=C1Cl,,,3.42,1.77 µM (inactive),14 µM (inactive),3.03 µM (inactive),6.46 µM (inactive),10.4 µM (inactive),,20.7 µM (inactive),14.4 µM (inactive),8.17 µM (inactive),14.8 µM (inactive),> 100 µM (inactive),17.7 µM (inactive),1.86 µM (inactive),6.21 µM (inactive)
COC(=O)/C(=N/O)C(C(=O)C=C(C)C)C(=O)C(=O)Nc1nc2ccc([N+](=O)[O-])cc2s1 (centres undefined),10.5 µM (inactive),41.7 µM (inactive),30.7,38.2 µM (inactive),59.7 µM (inactive),28.9 µM (inactive),47.2 µM (inactive),27.5 µM (inactive),23.6 µM (inactive),37.9 µM (inactive),31.8 µM (inactive),28.3 µM (inactive),23.2 µM (inactive),32.2 µM (inactive),26.8 µM (inactive),32.1 µM (inactive),
C[n+]1cn(CC(=O)c2ccccc2)c(C(N)=O)c1N,> 100 µM (inactive),24.2 µM (inactive),80.7,0.337 µM (active),> 100 µM (inactive),> 10 µM (inactive),> 100 µM (inactive),> 100 µM (inactive),> 100 µM (inactive),> 100 µM (inactive),> 100 µM (inactive),> 100 µM (inactive),> 100 µM (inactive),> 100 µM (inactive),> 100 µM (inactive),77.6 µM (inactive),
O/N=C1\C(=C\c2ccc3c(c2)OCCO3)CCCC1C(NO)c1ccc2c(c1)OCCO2 (centres undefined),16 µM (inactive),18.7 µM (inactive),22.5,14.7 µM (inactive),17.5 µM (inactive),,21.4 µM (inactive),25.4 µM (inactive),,20.5 µM (inactive),30.1 µM (inactive),18.2 µM (inactive),13.4 µM (inactive),14 µM (inactive),26.8 µM (inactive),13.8 µM (inactive),25.8 µM (inactive)
C[C@@H](C1CCC2C3C(=CC(=O)[C@@]21C)[C@H](C)[C@]1(CCC(=O)O1)C1OC31)[C@H]1C[C@]2(C)O[C@@](C)(O1)OC2(C)C (some centres undefined),> 100 µM (inactive),> 100 µM (inactive),> 100,> 100 µM (inactive),> 100 µM (inactive),> 100 µM (inactive),,,,> 100 µM (inactive),,> 100 µM (inactive),> 100 µM (inactive),> 100 µM (inactive),> 100 µM (inactive),> 100 µM (inactive),> 100 µM (inactive)
CC(CC(=O)Nc1ccc(NC(=O)CC(C)/N=N\C(N)=S)cc1)/N=N\C(N)=S (centres undefined),> 100 µM (inactive),> 100 µM (inactive),85.9,> 100 µM (inactive),> 100 µM (inactive),> 100 µM (inactive),> 100 µM (inactive),> 100 µM (inactive),> 100 µM (inactive),> 100 µM (inactive),> 100 µM (inactive),> 100 µM (inactive),> 100 µM (inactive),> 100 µM (inactive),> 100 µM (inactive),,> 100 µM (inactive)
O=C1Nc2cccc3ncn(c23)C2=C1CCCC2,,> 100 µM (inactive),> 100,> 100 µM (inactive),,> 100 µM (inactive),> 100 µM (inactive),> 100 µM (inactive),,> 100 µM (inactive),,> 100 µM (inactive),> 100 µM (inactive),> 100 µM (inactive),> 100 µM (inactive),> 100 µM (inactive),> 100 µM (inactive)
CCOC(=O)C1=C(Nc2ccc(Cl)cc2Cl)OCC1=O,,> 100 µM (inactive),> 100,> 100 µM (inactive),> 100 µM (inactive),> 100 µM (inactive),> 100 µM (inactive),> 100 µM (inactive),> 100 µM (inactive),> 100 µM (inactive),> 100 µM (inactive),> 100 µM (inactive),> 100 µM (inactive),> 100 µM (inactive),> 100 µM (inactive),> 100 µM (inactive),
CCC1(Br)C(=O)NC(=O)N(C2CC(O)C(CO)O2)C1N=[N+]=[N-] (centres undefined),> 100 µM (inactive),,,> 100 µM (inactive),> 100 µM (inactive),> 100 µM (inactive),,> 100 µM (inactive),,> 100 µM (inactive),> 100 µM (inactive),> 100 µM (inactive),> 100 µM (inactive),> 100 µM (inactive),> 100 µM (inactive),94.4 µM (inactive),66.7 µM (inactive)
CC1=CC2C(C=C1)S(=O)(=O)N1CC21c1ccccc1 (centres undefined),> 100 µM (inactive),> 100 µM (inactive),> 100,> 100 µM (inactive),> 100 µM (inactive),69.2 µM (inactive),> 100 µM (inactive),> 100 µM (inactive),,> 100 µM (inactive),,> 100 µM (inactive),> 100 µM (inactive),> 100 µM (inactive),55.1 µM (inactive),> 100 µM (inactive),
NC(=O)C(=Cc1ccc(C(O)P(=O)(O)O)cc1)C(N)=O (centres undefined),> 100 µM (inactive),> 100 µM (inactive),> 100,,> 100 µM (inactive),> 100 µM (inactive),> 100 µM (inactive),> 100 µM (inactive),,> 100 µM (inactive),> 100 µM (inactive),,> 100 µM (inactive),> 100 µM (inactive),> 100 µM (inactive),> 100 µM (inactive),> 100 µM (inactive)
Cc1cc(NS(=O)(=O)c2ccc(Nc3c4ccccc4nc4c(C(=O)Nc5ccc(S(=O)(=O)N=C(N)N)cc5)cccc34)cc2)no1,> 100 µM (inactive),> 100 µM (inactive),> 100,,> 100 µM (inactive),> 100 µM (inactive),> 100 µM (inactive),> 100 µM (inactive),,> 100 µM (inactive),> 100 µM (inactive),> 100 µM (inactive),> 100 µM (inactive),> 100 µM (inactive),> 100 µM (inactive),> 100 µM (inactive),> 100 µM (inactive)
OCC(O)C(O)c1nn(-c2ccccc2)c2nc3cc(Cl)c(Cl)cc3nc12 (centres undefined),,16.8 µM (inactive),23.6,18.2 µM (inactive),21.9 µM (inactive),13.3 µM (inactive),20.8 µM (inactive),17.2 µM (inactive),21.4 µM (inactive),27.7 µM (inactive),24.7 µM (inactive),21.4 µM (inactive),24 µM (inactive),63.5 µM (inactive),5.98 µM (inactive),26.1 µM (inactive),21.2 µM (inactive)
CC(C)c1ccc(/C=C/c2cc(C(=O)NNC(=O)NC3CCCCC3)nc(S)n2)cc1,> 100 µM (inactive),> 100 µM (inactive),> 100,,> 100 µM (inactive),,> 100 µM (inactive),> 100 µM (inactive),> 100 µM (inactive),> 100 µM (inactive),> 100 µM (inactive),> 100 µM (inactive),> 100 µM (inactive),> 100 µM (inactive),> 100 µM (inactive),> 100 µM (inactive),> 100 µM (inactive)
C/N=C(\S)N/N=C/C(C)=N/N/C(S)=N/C,48.2 µM (inactive),0.0489 µM (active),> 100,,,,> 100 µM (inactive),> 100 µM (inactive),,> 100 µM (inactive),,> 100 µM (inactive),> 100 µM (inactive),> 100 µM (inactive),> 100 µM (inactive),> 100 µM (inactive),> 100 µM (inactive)
Cc1ccc(C)c(N2C(=O)C(=O)C(c3nc4ccccc4s3)/C(=N/N)C2=O)c1 (centres undefined),,> 34.4 µM (inactive),> 100,> 100 µM (inactive),> 100 µM (inactive),> 100 µM (inactive),> 100 µM (inactive),> 100 µM (inactive),> 100 µM (inactive),> 100 µM (inactive),> 46.9 µM (inactive),> 100 µM (inactive),> 100 µM (inactive),> 100 µM (inactive),> 100 µM (inactive),> 100 µM (inactive),> 100 µM (inactive)
Cc1ccc(S(=O)(=O)O/N=C2\CCC\C2=C/c2ccccc2)cc1,,12.4 µM (inactive),22.9,6.82 µM (inactive),25.3 µM (inactive),26.7 µM (inactive),17.6 µM (inactive),,18.5 µM (inactive),19.5 µM (inactive),23.3 µM (inactive),8.87 µM (inactive),19.9 µM (inactive),45 µM (inactive),19.9 µM (inactive),18.9 µM (inactive),20.3 µM (inactive)
